According to patent US20020137929A1, “1 - (3-heterocyclylphenyl) isothiourea, -isourea, -guanidine and -amidine herbicidal agents” (Intellectual Property Department, BASF Aktiengesellschaft, priority 1998, published 2002):

Legend:
[1] = system: IPOHE (Morningglory, Ivyleaf); assay: Preemergence herbicidal evaluation; type: in vivo, Ipomoea hederacea; conditions: rated 4-5 weeks after treatment
In short: (§1)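 Greenhouse preemergence test: seed-soil mix sown on ~1 inch soil; aqueous acetone spray at equivalent of ~0.0156–0.500 kg/ha; greenhouse-held and watered; scored 0–9 visually at 4–5 weeks.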

[2] = system: TRZAWR (Wheat, Winter, cv Riband); assay: Postemergence herbicidal evaluation; type: in vivo, Triticum aestivum; conditions: postemergence
In short: (§2)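 Two-week-old seedlings sprayed with compound in 50/50 acetone/water plus 0.5% TWEEN 20, at about 0.0156 to 0.500 kg/ha, nozzle at 40 psi. Kept in greenhouse; rated visually 4-5 weeks after treatment on a 0-9 scale versus control, repeat tests averaged.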

[3] = system: GALAP (Galium); assay: Postemergence herbicidal evaluation; type: in vivo, Galium aparine; conditions: postemergence
In short: as §2

[4] = system: MOOVA (Monochoria); assay: Preemergence weed control under flooded paddy conditions; type: in vivo, Monochoria vaginalis; conditions: rated 3-4 weeks after treatment
In short: (§3)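 Silt loam, seeds in top 0.5 cm; flood held 1.5-3 cm; test cpd as acetone/water 50/50 into flood water, ~0.0313-0.500 kg/ha a.i.; greenhouse 3-4 wk; visual 0-9 score vs control.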

[5] = system: SETVI (Foxtail, Green); assay: Preemergence herbicidal evaluation; type: in vivo, Setaria viridis; conditions: rated 4-5 weeks after treatment
In short: as §1

[6] = system: ECHORC (Watergrass (Calif.)); assay: Preemergence weed control under flooded paddy conditions; type: in vivo, Echinochloa oryzoides; conditions: rated 3-4 weeks after treatment
In short: as §3

[7] = system: SETVI (Foxtail, Green); assay: Postemergence herbicidal evaluation; type: in vivo, Setaria viridis; conditions: postemergence
In short: as §2

[8] = system: CYPIR (Rice Flatsedge); assay: Preemergence weed control under flooded paddy conditions; type: in vivo, Cyperus iria; conditions: rated 3-4 weeks after treatment
In short: as §3

[9] = system: IPOHE (Morningglory, Ivyleaf); assay: Postemergence herbicidal evaluation; type: in vivo, Ipomoea hederacea; conditions: postemergence
In short: as §2

[10] = system: SAGPY (Arrowhead (Pygmaea)); assay: Postemergence weed control under flooded paddy conditions; type: in vivo, Sagittaria pygmaea; conditions: postemergence weeds, rated 3 to 4 weeks after treatment
In short: (§4)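 With weeds 3 to 5 cm tall and rice at the 1.5 to 2.5 leaf stage, containers were flooded and water held 1.5 to 3 cm above soil. Compounds in 50/50 v/v aqueous/acetone went into the flood water at about 0.0313 to 0.500 kg/ha a.i. Effects were visually rated 0–9 against controls after three to four weeks in the greenhouse.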

[11] = system: ABUTH (Velvetleaf); assay: Preemergence herbicidal evaluation; type: in vivo, Abutilon theophrasti; conditions: rated 4-5 weeks after treatment
In short: as §1

[12] = system: ECHCG (Barnyardgrass); assay: Preemergence herbicidal evaluation; type: in vivo, Echinochloa crus-galli; conditions: rated 4-5 weeks after treatment
In short: as §1

[13] = system: ECHORC (Watergrass (Calif.)); assay: Postemergence weed control under flooded paddy conditions; type: in vivo, Echinochloa oryzoides; conditions: postemergence weeds, rated 3 to 4 weeks after treatment
In short: as §4

[14] = system: ZEAMX (Corn, Field); assay: Preemergence herbicidal evaluation; type: in vivo, Zea mays; conditions: rated 4-5 weeks after treatment
In short: as §1

Question: With `Cn1c(C(F)(F)F)cc(=O)n(-c2cc(N=C3SCC(=O)N3CC(=O)OCC#N)c(Cl)cc2F)c1=O` [Compound 109, 2-{{2-Chloro-5-[3,6-dihydro-3-methyl-2,6-dioxo-4-(trifluoromethyl)-1(2H)-pyrimidinyl]-4-fluorophenyl}imino}-4-oxo-3-thiazolidineacetic acid, ester with glycolonitrile] as the compound, how does the “Preemergence herbicidal rating IPOHE” value ([1]; rate 0.0156 kg/ha) read?
Answer: The value was 2.0.

Question: What about the “Preemergence herbicidal rating IPOHE” value ([1]; rate 0.0313 kg/ha) of the same compound?
Answer: Its value is 2.0.

Question: And the “Preemergence herbicidal rating IPOHE” value ([1]; rate 0.0625 kg/ha)?
Answer: Its value is 5.0.

Question: What about the “Preemergence herbicidal rating IPOHE” value ([1]; rate 0.1250 kg/ha) of the same compound?
Answer: The value was 8.0.

Question: And the “Preemergence herbicidal rating IPOHE” value ([1]; rate 0.2500 kg/ha)?
Answer: The value was 8.0.

Question: What about the “Preemergence herbicidal rating IPOHE” value ([1]; rate 0.5000 kg/ha) of the same compound?
Answer: The value was 9.0.

Question: What about the “herbicidal rating TRZAWR” value ([2]; rate 0.0158 kg/ha) of the same compound?
Answer: Its value is 3.0.

Question: And the “herbicidal rating TRZAWR” value ([2]; rate 0.0315 kg/ha)?
Answer: Its value is 4.0.

Question: And the “herbicidal rating TRZAWR” value ([2]; rate 0.0630 kg/ha)?
Answer: The value was 4.5.

Question: What about the “herbicidal rating GALAP” value ([3]; rate 0.0158 kg/ha) of the same compound?
Answer: The value was 1.0.

Question: What about the “herbicidal rating GALAP” value ([3]; rate 0.0315 kg/ha) of the same compound?
Answer: Its value is 3.0.

Question: And the “herbicidal rating GALAP” value ([3]; rate 0.0630 kg/ha)?
Answer: Its value is 5.0.

Question: What about the “MOOVA herbicidal effect rating” value ([4]; 0.0313 kg/ha) of the same compound?
Answer: Its value is 7.0.

Question: What about the “MOOVA herbicidal effect rating” value ([4]; 0.0625 kg/ha) of the same compound?
Answer: The value was 9.0.

Question: What about the “MOOVA herbicidal effect rating” value ([4]; 0.1250 kg/ha) of the same compound?
Answer: Its value is 9.0.

Question: And the “MOOVA herbicidal effect rating” value ([4]; 0.2500 kg/ha)?
Answer: The value was 9.0.

Question: And the “Preemergence herbicidal rating SETVI” value ([5]; rate 0.0156 kg/ha)?
Answer: Its value is 5.5.

Question: And the “Preemergence herbicidal rating SETVI” value ([5]; rate 0.0313 kg/ha)?
Answer: The value was 6.0.

Question: And the “Preemergence herbicidal rating SETVI” value ([5]; rate 0.0625 kg/ha)?
Answer: The value was 9.0.

Question: What about the “Preemergence herbicidal rating SETVI” value ([5]; rate 0.1250 kg/ha) of the same compound?
Answer: Its value is 9.0.

Question: What about the “Preemergence herbicidal rating SETVI” value ([5]; rate 0.2500 kg/ha) of the same compound?
Answer: Its value is 9.0.

Question: And the “Preemergence herbicidal rating SETVI” value ([5]; rate 0.5000 kg/ha)?
Answer: The value was 9.0.

Question: What about the “ECHORC herbicidal effect rating” value ([6]; 0.0313 kg/ha) of the same compound?
Answer: Its value is 9.0.

Question: What about the “ECHORC herbicidal effect rating” value ([6]; 0.0625 kg/ha) of the same compound?
Answer: Its value is 9.0.

Question: And the “ECHORC herbicidal effect rating” value ([6]; 0.1250 kg/ha)?
Answer: The value was 9.0.

Question: And the “ECHORC herbicidal effect rating” value ([6]; 0.2500 kg/ha)?
Answer: The value was 9.0.

Question: And the “herbicidal rating SETVI” value ([7]; rate 0.0158 kg/ha)?
Answer: Its value is 6.0.

Question: And the “herbicidal rating SETVI” value ([7]; rate 0.0315 kg/ha)?
Answer: The value was 7.0.

Question: What about the “herbicidal rating SETVI” value ([7]; rate 0.0630 kg/ha) of the same compound?
Answer: The value was 9.0.

Question: What about the “CYPIR herbicidal effect rating” value ([8]; 0.0313 kg/ha) of the same compound?
Answer: Its value is 5.0.

Question: What about the “CYPIR herbicidal effect rating” value ([8]; 0.0625 kg/ha) of the same compound?
Answer: The value was 7.0.

Question: What about the “CYPIR herbicidal effect rating” value ([8]; 0.1250 kg/ha) of the same compound?
Answer: The value was 9.0.

Question: And the “CYPIR herbicidal effect rating” value ([8]; 0.2500 kg/ha)?
Answer: The value was 9.0.

Question: What about the “herbicidal rating IPOHE” value ([9]; rate 0.0158 kg/ha) of the same compound?
Answer: Its value is 9.0.

Question: And the “herbicidal rating IPOHE” value ([9]; rate 0.0315 kg/ha)?
Answer: The value was 9.0.

Question: What about the “herbicidal rating IPOHE” value ([9]; rate 0.0630 kg/ha) of the same compound?
Answer: Its value is 9.0.

Question: And the “Herbicidal rating SAGPY” value ([10]; Rate 0.0313 kg/ha)?
Answer: Its value is 0.0.

Question: And the “Herbicidal rating SAGPY” value ([10]; Rate 0.0625 kg/ha)?
Answer: Its value is 0.0.

Question: What about the “Herbicidal rating SAGPY” value ([10]; Rate 0.1250 kg/ha) of the same compound?
Answer: The value was 0.0.

Question: And the “Herbicidal rating SAGPY” value ([10]; Rate 0.2500 kg/ha)?
Answer: The value was 0.0.

Question: What about the “Preemergence herbicidal rating ABUTH” value ([11]; rate 0.0156 kg/ha) of the same compound?
Answer: The value was 6.5.

Question: What about the “Preemergence herbicidal rating ABUTH” value ([11]; rate 0.0313 kg/ha) of the same compound?
Answer: The value was 9.0.

Question: What about the “Preemergence herbicidal rating ABUTH” value ([11]; rate 0.0625 kg/ha) of the same compound?
Answer: Its value is 9.0.

Question: What about the “Preemergence herbicidal rating ABUTH” value ([11]; rate 0.1250 kg/ha) of the same compound?
Answer: Its value is 9.0.

Question: What about the “Preemergence herbicidal rating ABUTH” value ([11]; rate 0.2500 kg/ha) of the same compound?
Answer: Its value is 9.0.

Question: What about the “Preemergence herbicidal rating ABUTH” value ([11]; rate 0.5000 kg/ha) of the same compound?
Answer: The value was 9.0.

Question: What about the “Preemergence herbicidal rating ECHCG” value ([12]; rate 0.0156 kg/ha) of the same compound?
Answer: The value was 1.5.

Question: What about the “Preemergence herbicidal rating ECHCG” value ([12]; rate 0.0313 kg/ha) of the same compound?
Answer: The value was 2.5.

Question: And the “Preemergence herbicidal rating ECHCG” value ([12]; rate 0.0625 kg/ha)?
Answer: Its value is 4.0.

Question: And the “Preemergence herbicidal rating ECHCG” value ([12]; rate 0.1250 kg/ha)?
Answer: Its value is 7.0.

Question: And the “Preemergence herbicidal rating ECHCG” value ([12]; rate 0.2500 kg/ha)?
Answer: Its value is 8.5.

Question: And the “Preemergence herbicidal rating ECHCG” value ([12]; rate 0.5000 kg/ha)?
Answer: Its value is 9.0.

Question: What about the “Herbicidal rating ECHORC” value ([13]; Rate 0.0313 kg/ha) of the same compound?
Answer: The value was 2.0.

Question: What about the “Herbicidal rating ECHORC” value ([13]; Rate 0.0625 kg/ha) of the same compound?
Answer: The value was 2.0.

Question: What about the “Herbicidal rating ECHORC” value ([13]; Rate 0.1250 kg/ha) of the same compound?
Answer: The value was 7.0.

Question: What about the “Herbicidal rating ECHORC” value ([13]; Rate 0.2500 kg/ha) of the same compound?
Answer: The value was 9.0.

Question: And the “Preemergence herbicidal rating ZEAMX” value ([14]; rate 0.0156 kg/ha)?
Answer: Its value is 3.0.

Question: And the “Preemergence herbicidal rating ZEAMX” value ([14]; rate 0.0313 kg/ha)?
Answer: The value was 3.5.

Question: And the “Preemergence herbicidal rating ZEAMX” value ([14]; rate 0.0625 kg/ha)?
Answer: The value was 4.0.

Question: What about the “Preemergence herbicidal rating ZEAMX” value ([14]; rate 0.1250 kg/ha) of the same compound?
Answer: Its value is 6.0.

Question: What about the “Preemergence herbicidal rating ZEAMX” value ([14]; rate 0.2500 kg/ha) of the same compound?
Answer: Its value is 6.5.

Question: And the “Preemergence herbicidal rating ZEAMX” value ([14]; rate 0.5000 kg/ha)?
Answer: The value was 7.0.
